PubChem BioAssay (NCI)
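Five concentrations, 48 hours, 96-well plates. TGI is the concentration that stops growth completely.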

Key:
Test in all cases: DTP human tumour cell line panel, 48 h
NCI-H226 lung = test system: NCI-H226 lung
MALME-3M melanoma = test system: MALME-3M melanoma
SF-268 CNS = test system: SF-268 CNS
M19-MEL melanoma = test system: M19-MEL melanoma
DLD-1 colon = test system: DLD-1 colon
LXFL 529 NSCLC = test system: LXFL 529 NSCLC
DMS 114 small cell lung = test system: DMS 114 small cell lung
UACC-257 melanoma = test system: UACC-257 melanoma
NCI-H522 lung = test system: NCI-H522 lung
HCT-15 colon = test system: HCT-15 colon
KM20L2 colon = test system: KM20L2 colon
OVCAR-5 ovarian = test system: OVCAR-5 ovarian
SK-MEL-28 melanoma = test system: SK-MEL-28 melanoma
KM12 colon = test system: KM12 colon
TK-10 renal = test system: TK-10 renal
M14 melanoma = test system: M14 melanoma
LOX IMVI melanoma = test system: LOX IMVI melanoma
NCI-H460 lung = test system: NCI-H460 lung
A549 NSCLC = test system: A549 NSCLC
UO-31 renal = test system: UO-31 renal
SNB-75 CNS = test system: SNB-75 CNS
RXF 393 renal = test system: RXF 393 renal
HOP-62 NSCLC = test system: HOP-62 NSCLC
EKVX NSCLC = test system: EKVX NSCLC
SF-539 CNS = test system: SF-539 CNS
SNB-19 CNS = test system: SNB-19 CNS
SN12C renal = test system: SN12C renal
HT29 colon = test system: HT29 colon
OVCAR-3 ovarian = test system: OVCAR-3 ovarian
UACC-62 melanoma = test system: UACC-62 melanoma
786-0 renal = test system: 786-0 renal
CAKI-1 renal = test system: CAKI-1 renal
HCT-116 colon = test system: HCT-116 colon
HL-60(TB) leukemia = test system: HL-60(TB) leukemia
SW-620 colon = test system: SW-620 colon
SK-MEL-5 melanoma = test system: SK-MEL-5 melanoma
SK-OV-3 ovarian = test system: SK-OV-3 ovarian
U251 CNS = test system: U251 CNS
OVCAR-8 ovarian = test system: OVCAR-8 ovarian
A498 renal = test system: A498 renal
SNB-78 CNS = test system: SNB-78 CNS
HOP-18 NSCLC = test system: HOP-18 NSCLC
ACHN renal = test system: ACHN renal
NCI-H23 lung = test system: NCI-H23 lung
IGROV1 ovarian = test system: IGROV1 ovarian
HCC-2998 colon = test system: HCC-2998 colon
OVCAR-4 ovarian = test system: OVCAR-4 ovarian
CCRF-CEM leukemia = test system: CCRF-CEM leukemia
MDA-MB-435 = test system: MDA-MB-435
HOP-92 NSCLC = test system: HOP-92 NSCLC
NCI/ADR-RES ovarian = test system: NCI/ADR-RES ovarian
T-47D breast = test system: T-47D breast
HS 578T breast = test system: HS 578T breast
MCF7 breast = test system: MCF7 breast
MDA-N = test system: MDA-N
MOLT-4 leukemia = test system: MOLT-4 leukemia
SK-MEL-2 melanoma = test system: SK-MEL-2 melanoma
RPMI-8226 leukemia = test system: RPMI-8226 leukemia
XF 498 CNS = test system: XF 498 CNS
COLO 205 colon = test system: COLO 205 colon
DMS 273 small cell lung = test system: DMS 273 small cell lung
MDA-MB-231 breast = test system: MDA-MB-231 breast
SF-295 CNS = test system: SF-295 CNS
PC-3 prostate = test system: PC-3 prostate
K-562 leukemia = test system: K-562 leukemia
SR leukemia = test system: SR leukemia
BT-549 breast = test system: BT-549 breast
DU-145 prostate = test system: DU-145 prostate

Measured: TGI

O=C(Nc1ccc(Cl)cc1Cl)C1C(=O)C(=O)N(c2ccc(Cl)cc2Cl)C1=O (stereo not drawn)
84.1 µM: NCI-H226 lung
not listed: CCRF-CEM leukemia | MDA-MB-435 | HOP-92 NSCLC | NCI/ADR-RES ovarian | T-47D breast | HS 578T breast | MCF7 breast | MDA-N | MOLT-4 leukemia | SK-MEL-2 melanoma | RPMI-8226 leukemia | XF 498 CNS | COLO 205 colon | DMS 273 small cell lung | MDA-MB-231 breast | SF-295 CNS | PC-3 prostate | K-562 leukemia | SR leukemia | BT-549 breast | DU-145 prostate
> 100 µM: all other assays above

COc1ccc(N2C(=O)[C@H]3[C@H]4CC(C(C)(C)C)CC[C@H]4c4c(n(C)c5ccccc45)[C@H]3C2=O)cc1 (stereo partly drawn)
> 82.4 µM: NCI-H522 lung
> 61.3 µM: KM12 colon
> 56.2 µM: HCT-15 colon | SN12C renal | U251 CNS | HCC-2998 colon
> 46.4 µM: EKVX NSCLC | SF-539 CNS | MCF7 breast | A498 renal
> 86 µM: HS 578T breast
> 5.62 µM: HOP-62 NSCLC
> 63.8 µM: NCI-H460 lung
not listed: KM20L2 colon | SNB-78 CNS
> 100 µM: all other assays above
